Experimental data from patent US10722496B2, “2-iminobiotin for use in the treatment of brain cell injury” (Neurophyxia B.V., priority 2015, dated 2020).

Legend:
[1] = system: IMR-32 cell cultures; assay: ROS fluorometric assay after hypoxia under mild hypothermia; format: cell-based, human
Protocol: In-vitro hypoxia was induced for 7 hours using IMR-32 cell cultures. After the hypoxic insult, cultures were subjected to 25 hours of mild hypothermia (33.5° C.) and were incubated with or without 2-IB (10, 30, 50, 100 and 300 ng/ml). Cell morphology was evaluated by brightfield microscopy and cell damage was analyzed by LDH assays. Production of reactive oxygen species (ROS) was measured using fluorometric assays. Western blotting for PARP and phosphorylated as well as unphosphorylated akt and erkl/2 was performed.

[2] = Phase I clinical study pharmacokinetics, pulse i.v. infusion in healthy male subjects; format: in vivo, human; conditions: for mean AUC 4 hours: 6 pulses of 0.6 mg/kg in a 24-hour period
Source text: The pharmacokinetics of 2-IB have been investigated in a Phase I clinical study in which the safety and tolerability of single and multiple doses of 2-IB pulse i.v. infusion in healthy male subjects were investigated. The study was a randomized, double-blind, placebo-controlled, dose escalation study with 3 groups of 6 healthy male subjects receiving a single i.v. infusion or pulsed i.v. infusions of 2-IB or placebo in 3 periods. Treatments were randomized such that each subject received 2 out of 3 foreseen dose levels of 2-IB and once placebo.

[3] = system: erkl/2; assay: Western blotting, erkl/2 phosphorylation; format: cell-based, human; conditions: 30 ng/ml 2-IB
Protocol: In vitro hypoxia was induced in the cell cultures by using our recently described system with minor modifications (Huang et al., 2013b; Weber et al., 2015; Zitta et al., 2010). Enzyme stock solutions (100×) of catalase and glucose oxidase (both from Sigma-Aldrich) were prepared in cell culture medium (DMEM/F12, 1% FCS; final concentration: 120 U/ml and 2 U/ml respectively; Sigma-Aldrich) leading to a decrease of partial pressure of oxygen (pO2) below 10 mmHg within 5 minutes. Hypoxic conditions were confirmed by using a tissue oxygen pressure monitor (LICOX® CMP Oxygen Catheter; Integra, Plainsboro, USA). After 7 hours of hypoxia, the cells were washed twice with PBS (PAA) and fresh normoxic medium supplemented with solvent (citrate buffer 1%) or 2-IB (10, 30, 50, 100 and 300 ng/mL) was added to the cells. […]
Protein extraction was performed using RIPA buffer containing 150 mM sodium chloride, 1% NP-40, 1% sodium deoxycholate, 0.1% sodium dodecyl sulfate (SDS) and 50 mM Tris-HCl buffer (pH 7.6; all from Sigma-Aldrich) or alternatively M-PER buffer (Mammalian Protein Extraction Reagent; Pierce, Ill., USA). Protein concentrations were determined with Roti®-Quant assays (Carl Roth) and samples were stored at −20° C. until use. […] Images were taken and densitometrically analyzed with the software ImageJ (v1.41o, NIH).

[4] = system: IMR-32 cells; assay: Metabolic activity assay (MTS); format: cell-based, human
Protocol: In vitro hypoxia was induced in the cell cultures by using our recently described system with minor modifications (Huang et al., 2013b; Weber et al., 2015; Zitta et al., 2010). Enzyme stock solutions (100×) of catalase and glucose oxidase (both from Sigma-Aldrich) were prepared in cell culture medium (DMEM/F12, 1% FCS; final concentration: 120 U/ml and 2 U/ml respectively; Sigma-Aldrich) leading to a decrease of partial pressure of oxygen (pO2) below 10 mmHg within 5 minutes. Hypoxic conditions were confirmed by using a tissue oxygen pressure monitor (LICOX® CMP Oxygen Catheter; Integra, Plainsboro, USA). After 7 hours of hypoxia, the cells were washed twice with PBS (PAA) and fresh normoxic medium supplemented with solvent (citrate buffer 1%) or 2-IB (10, 30, 50, 100 and 300 ng/mL) was added to the cells. Investigations of cell damage, metabolic activity, ROS, hydrogen peroxide, nitrite/nitrate production, erkl/2, akt and stat5 phosphorylation as well as cell stress protein expression were performed with cell culture media or cell protein (FIG. 1).
Metabolically active cells were evaluated by using a colorimetric kit (CELLTITER96® AQueous One Solution Reagent G3580 Promega Madison, Wis., USA). Samples were prepared concerning to the manufacturer's protocol. Briefly, 4×10^4 cells were seeded per well in a 96-well plate with 100 μl DMEM/F12 supplemented with 10% FCS per well. After 2 days in culture, normoxia or hypoxia was applied for 7 hours followed by the addition of 2-IB or the respective solvent control (citrate 1%) for 17 hours. After that, 20 μl of […] reagent were added to each well for 2.5 hours at 37° C. Metabolic active cells generate a colored product, the absorbance of which was measured at 490 nm using an ELISA reader (Tecan, Crailsheim, Austria) in combination with the Magellan software v1.1.

With `N=C1N[C@H]2[C@H](CS[C@H]2CCCCC(=O)O)N1` [2-IB, 2-iminobiotin] the “hypoxia-induced ROS production” value ([1]; 30 ng/ml 2-IB post-hypoxic, mild hypothermia (33.5° C.)) was “attenuated the hypoxia-induced ROS production under hypothermic conditions”, the “hypoxia-induced ROS generation” value ([1]; higher concentrations of 2-IB (above 30 ng/ml), mild hypothermia) was “less effective in reducing hypoxia-induced ROS generation” and the “mean AUC 0-4 hours on average” value ([2]; 0.6 mg/kg pulses, during the 24-hour dosing period) was “about 1305 ng·h/mL”. For the same compound, the “mean AUC 4 hours” value ([2]; after the first infusion) was 1170 ng·h/mL, the “mean AUC 4 hours” value ([2]; after the last infusion) was 1441 ng·h/mL and the “phosphorylation of erkl/2” value [3] was “did not influence”. For the same compound, the metabolic activity ([4]; 10 ng/ml 2-IB, hypoxia) was 0.44±0.10 a.u, the metabolic activity ([4]; 10 ng/ml 2-IB, normoxia, 17 hours after hypoxia) was 0.44±0.08 a.u and the metabolic activity ([4]; 30 ng/ml 2-IB, hypoxia) was 0.45±0.09 a.u. The metabolic activity ([4]; 30 ng/ml 2-IB, normoxia) was 0.49±0.08 a.u, the metabolic activity ([4]; 50 ng/ml 2-IB, hypoxia) was 0.41±0.06 a.u and the metabolic activity ([4]; 50 ng/ml 2-IB, normoxia) was 0.50±0.08 a.u. The metabolic activity ([4]; 100 ng/ml 2-IB, hypoxia) was 0.33±0.06 a.u, the metabolic activity ([4]; 100 ng/ml 2-IB, normoxia) was 0.58±0.09 a.u and the metabolic activity ([4]; 300 ng/ml 2-IB, hypoxia) was 0.33±0.07 a.u. For the same compound, the metabolic activity ([4]; 300 ng/ml 2-IB, normoxia) was 0.63±0.09 a.u and the “hypoxia-induced reduction of metabolic activity, most efficient concentrations” value ([4]; 10-300 ng/ml tested, P<0.01 vs. control) was “most efficiently counteracted by 10, 30 and 50 ng/ml 2-IB”.
